Measured values reported in ChEMBL document CHEMBL1201862, “PubChem BioAssay data set” (2004).
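All cell lines were grown in 96-well plates and treated with compound for 48 hours. GI50: concentration for 50% inhibition of growth.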 Active and inactive are the calls of the source. Cut-off read from the data, not from the text of the source: active = GI50 up to about 1.1 µM and inactive = higher.

Columns and labels:
Assay in all cases: inhibition of tumour cell growth, NCI panel, 48 h
[1] = test system: HOP-92
[2] = test system: EKVX
[3] = test system: COLO 205
[4] = test system: DMS-273
[5] = test system: SW-620
[6] = test system: SF-539
[7] = test system: SK-MEL-2
[8] = test system: BT-549
[9] = test system: ACHN
[10] = test system: OVCAR-4
[11] = test system: U-251
[12] = test system: OVCAR-3
[13] = test system: UACC-257
[14] = test system: MDA-MB-231
[15] = test system: A498
[16] = test system: CCRF-CEM
[17] = test system: MDA-N
[18] = test system: SF-295
[19] = test system: A549
[20] = test system: CAKI-1

SMILES | GI50 [1] | GI50 [2] | GI50 [3] | GI50 [4] | GI50 [5] | GI50 [6] | GI50 [7] | GI50 [8] | GI50 [9] | GI50 [10] | GI50 [11] | GI50 [12] | GI50 [13] | GI50 [14] | GI50 [15] | GI50 [16] | GI50 [17] | GI50 [18] | GI50 [19] | GI50 [20]
CNC(=O)OCc1nc(SSC(C)(C)C)n(C)c1COC(=O)NC | 1.78 µM (inactive) | 8.28 µM (inactive) | 1.59 µM (inactive) | 5.97 µM (inactive) | 1.61 µM (inactive) | 3.94 µM (inactive) | 8.02 µM (inactive) | 1.47 µM (inactive) | 2.7 µM (inactive) | 2.01 µM (inactive) | 12.9 µM (inactive) | 2.1 µM (inactive) | 2.94 µM (inactive) | 2.24 µM (inactive) | 9.38 µM (inactive) | 0.697 µM (active) | 2.45 µM (inactive) | 17.1 µM (inactive) | 14.2 µM (inactive) | 1.82 µM (inactive)
COC(=O)c1cccc2cccc(C(=O)Nc3ccc(Cl)cc3)c12 | > 69.7 µM (inactive) | 23.2 µM (inactive) | 0.977 µM (active) | 0.729 µM (active) | 11.4 µM (inactive) | 21.3 µM (inactive) | 1.84 µM (inactive) | – | 2.92 µM (inactive) | > 100 µM (inactive) | 39.7 µM (inactive) | 29.2 µM (inactive) | > 100 µM (inactive) | – | 36.1 µM (inactive) | 2.26 µM (inactive) | – | 1.72 µM (inactive) | > 78.2 µM (inactive) | > 100 µM (inactive)
Cc1cccc(C(C)C)c1NC(=O)C(=O)CC(=O)c1c(C)[n+]([O-])c2ccccc2[n+]1[O-] | 67 µM (inactive) | 30.7 µM (inactive) | 33.1 µM (inactive) | 33.8 µM (inactive) | 33.1 µM (inactive) | 36.9 µM (inactive) | 29.3 µM (inactive) | – | > 100 µM (inactive) | 25.4 µM (inactive) | 34.1 µM (inactive) | 3.44 µM (inactive) | 23.3 µM (inactive) | – | > 100 µM (inactive) | 32.2 µM (inactive) | – | 49.1 µM (inactive) | 36.7 µM (inactive) | 25.6 µM (inactive)
O=C(CCC1CCCCN1)Nc1ccc2c(c1)C(=O)c1ccc(NC(=O)CCN3CCCCC3)cc1C2=O (stereo unspecified) | 2 µM (inactive) | > 10 µM (inactive) | 1.35 µM (inactive) | 2.54 µM (inactive) | > 10 µM (inactive) | 2.97 µM (inactive) | 1.37 µM (inactive) | – | 1.45 µM (inactive) | 1.65 µM (inactive) | 8.13 µM (inactive) | 2.37 µM (inactive) | 1.44 µM (inactive) | > 10 µM (inactive) | 4.14 µM (inactive) | 8.73 µM (inactive) | > 10 µM (inactive) | 3.56 µM (inactive) | 5.19 µM (inactive) | 2.11 µM (inactive)
Cc1cc(NS(=O)(=O)c2ccc(Nc3c4ccccc4nc4c(C(=O)Nc5ccc(S(N)(=O)=O)cc5)cccc34)cc2)no1 | 33 µM (inactive) | > 100 µM (inactive) | 34.8 µM (inactive) | > 100 µM (inactive) | 74.3 µM (inactive) | 21.3 µM (inactive) | 24.1 µM (inactive) | – | > 100 µM (inactive) | 23.4 µM (inactive) | 24.8 µM (inactive) | 16 µM (inactive) | > 100 µM (inactive) | – | > 100 µM (inactive) | 26.5 µM (inactive) | – | > 100 µM (inactive) | > 100 µM (inactive) | > 100 µM (inactive)
CC(C)=CC(=O)Oc1ccc([N+](=O)[O-])cc1 | > 100 µM (inactive) | > 100 µM (inactive) | > 100 µM (inactive) | > 100 µM (inactive) | > 100 µM (inactive) | > 100 µM (inactive) | > 100 µM (inactive) | – | > 100 µM (inactive) | > 100 µM (inactive) | > 100 µM (inactive) | > 100 µM (inactive) | > 100 µM (inactive) | – | > 100 µM (inactive) | > 100 µM (inactive) | – | > 100 µM (inactive) | > 100 µM (inactive) | 20.7 µM (inactive)
O=C1CCCc2ccc([N+](=O)[O-])c(O)c21 | 68.1 µM (inactive) | > 100 µM (inactive) | > 100 µM (inactive) | > 100 µM (inactive) | > 100 µM (inactive) | > 100 µM (inactive) | 39 µM (inactive) | – | 48.9 µM (inactive) | > 100 µM (inactive) | 59.3 µM (inactive) | > 100 µM (inactive) | > 100 µM (inactive) | – | 50.7 µM (inactive) | > 100 µM (inactive) | – | > 100 µM (inactive) | 96.2 µM (inactive) | 37.9 µM (inactive)
NC1=C2C(Br)=CN([C@@H]3O[C@H](CO)[C@@H](O)[C@@H]3O)C2C(=O)N=N1 (stereo partly specified) | 2.51 µM (inactive) | 5.93 µM (inactive) | 7.93 µM (inactive) | 1.97 µM (inactive) | 1.15 µM (inactive) | 5.32 µM (inactive) | 14.8 µM (inactive) | – | 9.04 µM (inactive) | 2.44 µM (inactive) | 8.79 µM (inactive) | 0.811 µM (active) | 22.4 µM (inactive) | – | 40.4 µM (inactive) | 0.526 µM (active) | – | 15.8 µM (inactive) | 2.67 µM (inactive) | 0.396 µM (active)
CO[C@H]1C[C@](C)(O)Cc2cc3c(c(O)c21)C(=O)c1c(O)cc2c(c1C3=O)O[C@@H]1O[C@@]2(C)[C@H](O)[C@@H](N(C)C)[C@@H]1O | 0.362 µM (active) | 3.55 µM (inactive) | 1.96 µM (inactive) | 0.215 µM (active) | 0.55 µM (active) | 0.851 µM (active) | 2.43 µM (inactive) | 2.05 µM (inactive) | 0.279 µM (active) | 4.11 µM (inactive) | 0.368 µM (active) | 2.38 µM (inactive) | 9.73 µM (inactive) | 1.82 µM (inactive) | 0.968 µM (active) | 0.151 µM (active) | 1.85 µM (inactive) | 0.284 µM (active) | 0.0908 µM (active) | 0.151 µM (active)
